Measured values published in ChEMBL document CHEMBL3351326, “Discovery of substituted 6-pheny-3H-pyridazin-3-one derivatives as novel c-Met kinase inhibitors” (Bioorg Med Chem Lett, 2014).
pIC50: −log10 of the molar value.

Legend:
[1] = system: NCI-H1993; experiment: Cytotoxicity against human NCI-H1993 cells after 72 hrs by WST8 assay; conditions: NCI-H1993, 72 h
[2] = Cytotoxicity against human NCI-H3122 cells after 72 hrs by WST8 assay; conditions: NCI-H3122, 72 h
[3] = Cytotoxicity against human U87MG cells after 72 hrs by WST8 assay; format: functional, cell-based, U-87MG ATCC; conditions: U-87 MG
[4] = cells; conditions: Homo sapiens, Hs746T, 72 h
Description: Cytotoxicity against human Hs 746T cells after 72 hrs by WST8 assay

| SMILES | pIC50 [4] | pIC50 [1] | pIC50 [2] | pIC50 [3] |
| --- | --- | --- | --- | --- |
| Cn1cc(-c2cnc(N3CCO[C@H](Cn4nc(-c5ccc(OCc6ccccc6)cc5)ccc4=O)C3)nc2)cn1 | 5.52 | 5.39 | < 5.00 | 5.12 |
| O=c1ccc(-c2cc(F)cc(F)c2)nn1C[C@@H]1CN(c2ncc(-c3cnn(C4CCNCC4)c3)cn2)CCO1 | 6.35 | 5.80 | 5.72 | 5.49 |
| O=c1ccc(-c2cccc(Cl)c2)nn1C[C@@H]1CN(c2ncc(-c3cnn(C4CCNCC4)c3)cn2)CCO1 | 6.12 | 5.47 | < 5.00 | 5.00 |
| O=c1ccc(-c2cccc(F)c2)nn1C[C@@H]1CN(c2ncc(-c3cnn(C4CCN(CCO)CC4)c3)cn2)CCO1 | 6.34 | 5.49 | 5.48 | 5.47 |
| CN1CCC(n2cc(-c3cnc(N4CCO[C@H](Cn5nc(-c6cccc(F)c6)ccc5=O)C4)nc3)cn2)CC1 | 6.34 | 5.49 | 5.48 | 5.47 |
| CN1CCC(n2cc(-c3cnc(N4CCO[C@H](Cn5nc(-c6cc(F)c(F)c(F)c6)ccc5=O)C4)nc3)cn2)CC1 | 6.32 | 5.44 | 5.12 | 5.04 |
| CN1CCC(n2cc(-c3cnc(N4CCO[C@H](Cn5nc(-c6ccc(F)c(F)c6)ccc5=O)C4)nc3)cn2)CC1 | 6.03 | 5.24 | < 5.00 | < 5.00 |
| N#Cc1cccc(-c2ccc(=O)n(C[C@@H]3CN(c4ncc(-c5cnn(CCOC6CCCCO6)c5)cn4)CCO3)n2)c1 (some centres undefined) | 6.34 | 5.59 | < 5.00 | < 5.00 |
| N#Cc1cccc(-c2ccc(=O)n(C[C@@H]3CN(c4ncc(C5=CCNCC5)cn4)CCO3)n2)c1 | 6.13 | 5.42 | < 5.00 | 5.01 |
| CN1CC=C(c2cnc(N3CCO[C@H](Cn4nc(-c5cccc(C#N)c5)ccc4=O)C3)nc2)CC1 | 5.92 | 5.39 | < 5.00 | < 5.00 |
| N#Cc1cccc(-c2ccc(=O)n(C[C@@H]3CN(c4ncc(-c5ccc(OCCN6CCOCC6)c(Cl)c5)cn4)CCO3)n2)c1 | 5.85 | 5.92 | < 5.00 | 5.85 |
| N#Cc1cccc(-c2ccc(=O)n(C[C@@H]3CN(c4ncc(-c5ccnc(F)c5)cn4)CCO3)n2)c1 | 5.15 | 5.13 | < 5.00 | < 5.00 |
| CN1CCN(c2ccc(-c3cnc(N4CCO[C@H](Cn5nc(-c6cccc(C#N)c6)ccc5=O)C4)nc3)cn2)CC1 | 6.19 | 5.89 | 5.85 | 5.80 |
| N#Cc1cccc(-c2ccc(=O)n(C[C@@H]3CN(c4ncc(-c5ccc(OCCN6CCOCC6)nc5)cn4)CCO3)n2)c1 | 6.13 | 5.43 | 5.01 | – |

These reach a higher pIC50 [4]. Values come first.

| pIC50 [4] | SMILES | pIC50 [1] | pIC50 [2] | pIC50 [3] |
| --- | --- | --- | --- | --- |
| 7.15 | O=c1ccc(-c2ccc(F)c(Cl)c2)nn1C[C@@H]1CN(c2ncc(-c3cnn(C4CCNCC4)c3)cn2)CCO1 | 6.10 | 5.77 | 5.92 |
| 8.92 | N#Cc1cccc(-c2ccc(=O)n(C[C@@H]3CN(c4ncc(-c5cnn(C6CCNCC6)c5)cn4)CCO3)n2)c1 | 6.96 | < 5.00 | < 5.00 |
| 7.08 | O=c1ccc(-c2cccc(C(F)(F)F)c2)nn1C[C@@H]1CN(c2ncc(-c3cnn(C4CCNCC4)c3)cn2)CCO1 | 5.89 | 5.85 | 5.60 |
| 6.64 | O=c1ccc(-c2cc(F)c(F)c(F)c2)nn1C[C@@H]1CN(c2ncc(-c3cnn(C4CCNCC4)c3)cn2)CCO1 | 5.92 | 5.82 | 5.82 |
| 6.66 | O=c1ccc(-c2cccc(F)c2)nn1C[C@@H]1CN(c2ncc(-c3cnn(C4CCNCC4)c3)cn2)CCO1 | 5.46 | 5.12 | 5.31 |
| 6.55 | O=c1ccc(-c2ccc(F)cc2)nn1C[C@@H]1CN(c2ncc(-c3cnn(C4CCN(CCO)CC4)c3)cn2)CCO1 | 5.42 | < 5.00 | < 5.00 |
| 6.72 | O=c1ccc(-c2cc(F)c(F)c(F)c2)nn1C[C@@H]1CN(c2ncc(-c3cnn(C4CCN(CCO)CC4)c3)cn2)CCO1 | – | < 5.00 | 5.39 |
| 7.85 | CN1CCC(n2cc(-c3cnc(N4CCO[C@H](Cn5nc(-c6ccc(F)c(Cl)c6)ccc5=O)C4)nc3)cn2)CC1 | 5.92 | 5.85 | 5.82 |
| 9.15 | Cn1cc(-c2cnc(N3CCO[C@H](Cn4nc(-c5cccc(C#N)c5)ccc4=O)C3)nc2)cn1 | 8.00 | < 6.00 | < 6.00 |
| 6.74 | N#Cc1cccc(-c2ccc(=O)n(C[C@@H]3CN(c4ncc(-c5cnn(CCO)c5)cn4)CCO3)n2)c1 | 5.82 | < 5.00 | < 5.00 |
| 6.37 | CN1CCC(COc2cnc(N3CCO[C@H](Cn4nc(-c5cccc(C#N)c5)ccc4=O)C3)nc2)CC1 | 5.62 | < 5.00 | < 5.00 |
| 8.47 | N#Cc1cccc(-c2ccc(=O)n(C[C@@H]3CN(c4ncc(-c5cnn(CC6CCN(CCO)CC6)c5)cn4)CCO3)n2)c1 | 5.68 | < 5.00 | < 5.00 |
| 6.68 | N#Cc1cccc(-c2ccc(=O)n(C[C@@H]3CN(c4ncc(C5=CCN(CCO)CC5)cn4)CCO3)n2)c1 | 5.60 | < 5.00 | < 5.00 |
| 6.39 | N#Cc1cccc(-c2ccc(=O)n(C[C@@H]3CN(c4ncc(-c5ccc(OCCN6CCOCC6)cc5)cn4)CCO3)n2)c1 | 5.74 | < 5.00 | 5.47 |
| 7.89 | N#Cc1cccc(-c2ccc(=O)n(C[C@@H]3CN(c4ncc(-c5cnn(C6CCN(C7CCOCC7)CC6)c5)cn4)CCO3)n2)c1 | 6.64 | < 5.00 | < 5.00 |
